From US20250186433A1, “ACSS2 INHIBITORS AND METHODS OF USE THEREOF” (EpiVario, Inc., priority 2017, published 2025)

Legend:
ACSL5 = molecular target: T1, ACSL5 (Homo sapiens, UniProt Q9ULC5); assay: Acyl-CoA synthetases selectivity panel: ACSL5; type: biochemical; details: human recombinant protein, substrate palmitate, AMP readout by HPLC; read-out: HPLC based activity assays IC50 (UM) ACSL5
T1 construct: purchased Cusabio, China
T1 sequence (Q9ULC5 1-683): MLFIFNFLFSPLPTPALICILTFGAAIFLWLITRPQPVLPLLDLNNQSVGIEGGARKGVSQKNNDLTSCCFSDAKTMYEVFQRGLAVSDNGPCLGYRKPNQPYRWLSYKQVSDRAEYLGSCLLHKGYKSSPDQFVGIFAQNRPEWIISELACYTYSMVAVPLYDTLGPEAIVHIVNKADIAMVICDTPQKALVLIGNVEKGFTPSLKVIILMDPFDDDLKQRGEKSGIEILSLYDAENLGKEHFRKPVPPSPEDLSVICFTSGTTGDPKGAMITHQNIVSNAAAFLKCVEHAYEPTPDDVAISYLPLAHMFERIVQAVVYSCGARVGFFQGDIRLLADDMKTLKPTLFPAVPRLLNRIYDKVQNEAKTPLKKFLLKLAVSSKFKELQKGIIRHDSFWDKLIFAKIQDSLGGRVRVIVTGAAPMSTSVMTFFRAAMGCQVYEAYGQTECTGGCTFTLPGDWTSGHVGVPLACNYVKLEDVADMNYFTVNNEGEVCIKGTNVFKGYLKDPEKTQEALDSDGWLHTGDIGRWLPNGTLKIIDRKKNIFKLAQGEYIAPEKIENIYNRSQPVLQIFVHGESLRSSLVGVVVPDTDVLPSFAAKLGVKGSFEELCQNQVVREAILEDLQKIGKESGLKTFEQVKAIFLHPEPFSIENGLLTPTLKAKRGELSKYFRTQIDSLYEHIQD
Description: (§1) The biochemical assays for testing the selectivity of the compounds according to this invention, were done using human recombinant proteins (Cusabio, China). The readout of the assays was AMP levels, the […] of the reactions, by HPLC method. The acyl substrates (Sigma-Aldrich) of the assays were as followed: ACSS1/ACSS2—Acetate, AACS-Acetoacetyl, ACSF2—Octanoate and ACSL5—Palmitate. The protein in this panel include ACSS1, the closest homolog of ACSS2, in addition to representative short/medium/long chain acyl-CoA syntatases.

ACSF2 = molecular target: T2, ACSF2 (Homo sapiens, UniProt Q96CM8); assay: Acyl-CoA synthetases selectivity panel: ACSF2; type: biochemical; details: human recombinant protein, substrate octanoate, AMP readout by HPLC; read-out: HPLC based activity assays IC50 (UM) ACSF2
T2 construct: purchased Cusabio, China
T2 sequence (Q96CM8 42-615): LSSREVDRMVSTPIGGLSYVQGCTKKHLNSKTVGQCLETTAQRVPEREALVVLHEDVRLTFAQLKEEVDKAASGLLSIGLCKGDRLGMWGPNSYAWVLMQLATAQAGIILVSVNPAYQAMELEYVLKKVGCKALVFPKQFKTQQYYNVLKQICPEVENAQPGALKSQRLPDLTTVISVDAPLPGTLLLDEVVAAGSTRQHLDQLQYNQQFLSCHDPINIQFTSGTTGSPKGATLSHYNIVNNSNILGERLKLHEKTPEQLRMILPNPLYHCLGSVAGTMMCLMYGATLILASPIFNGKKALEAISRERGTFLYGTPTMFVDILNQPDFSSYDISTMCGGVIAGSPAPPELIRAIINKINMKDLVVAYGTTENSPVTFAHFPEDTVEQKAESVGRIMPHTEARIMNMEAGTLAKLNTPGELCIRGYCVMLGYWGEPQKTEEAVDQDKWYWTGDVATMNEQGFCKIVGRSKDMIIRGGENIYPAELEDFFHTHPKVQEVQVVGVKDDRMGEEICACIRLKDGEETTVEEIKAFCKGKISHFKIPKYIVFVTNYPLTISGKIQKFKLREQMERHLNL
Description: as §1

`COC(=O)c1cccc(N2N=C(C)C(C(=O)Nc3cccc(C(C)(F)F)c3)C2=O)c1` (centres unmarked) [compound 261, methyl 3-(4-((3-(1,1-difluoroethyl)phenyl)carbamoyl)-3-methyl-5-oxo-4,5-dihydro-1H-pyrazol-1-yl)benzoate] showed an IC50 (ACSL5) of over 100 µM and an IC50 (ACSF2) of 46 µM.
